Data on 4 compounds can be found in patent US11612586B2, “Indole regulation of antigen presenting cells” (THE TEXAS A&M UNIVERSITY SYSTEM, priority 2016, dated 2023).

Format in all cases: cell-based, mouse
The test system of test [1] is Akt. The experiment in a line: phospho-Akt in BMDCs, flow cytometry. As to conditions: BMDCs, 1 mM TDMM 24 hours, CpG (5 uM) 15 minutes. As for the experimental part:
Flow cytometric analysis was performed on BMDCs conditioned with indole from day 3 of culture and subsequently stimulated with LPS (5 ug/ml) for the given times. Cells were stained for phospho-Akt and analyzed by flow cytometry.
Flow cytometric analysis was performed on BMDCs from WT or AhrKO mice cultured in the presence of indole (1 mM) from day 3. DCs were stimulated with LPS (5 ug/ml) for the given times and stained for phospho-Akt, which was detected by flow cytometry. Percentage of pAkt-positive DCs indicated. Representative data is from one of three independent experiments.
Another central mediator of cellular signaling is the serine/threonine kinase, Akt (also referred to as protein kinase B), which regulates cellular processes including metabolism, growth, proliferation, and survival. The Akt pathway is activated by numerous receptor tyrosine kinases, cytokine receptors, G-protein-coupled receptors, and other molecules which activate the lipid kinase PI3K and result in production of phosphatidylinositol (3,4,5)-trisphosphate (PIPS). This second messenger acts as a docking site at the plasma membrane for Akt where phosphorylation and activation occurs. Akt is located upstream of NF-kB and can induce NF-kB signaling via phosphorylation of IKKα and Tp12. The effect of indole on Akt phosphorylation was assessed to determine whether indole's inhibition of NF-kB might be a secondary effect due to modulation of an upstream target.
(§1) The inventors performed a series of assays where bone marrow derived macrophages (BMDMs), bone marrow derived dendritic cells (BMDCs), and splenic dendritic cells (splenic DCs), were exposed to a series of TDMMs, including indole, indole-3-acetate (I3AT), 5-hydroxyindole (5HI), and indole-3-pyruvate (I3P), as well as indole-3-carbinol (I3C; a plant derived compound) to be used for a positive control (1 mM for 24 hours). The BMDMs and BMDCs were stimulated with LPS for 4 hours and assayed at day 7 for expression of various pro-inflammatory cytokines. In a similar assay, the BMDMs and BMDCs were stimulated with LPS or CpG, respectively, for 15 minutes and assayed for pAKT and pERK signaling, which is a reflection of pro-inflammatory response.

For test [2], the system named is IL-12. The experiment in a line: IL-12 production in BMDMs, intracellular staining, flow cytometry. As to conditions: BMDMs, 1 mM TDMM 24 hours, LPS 1 ug/ml 4 hours. As for the experimental part: (§2) BMDMs were treated with indole or DMF control for 18 hours or 4 hours, followed by stimulation with LPS (2 ug/ml or 250 ng/ml) for 4 hours in the presence of Golgiplug. BMDMs were then stained for intracellular TNF or IL-12 and analyzed by flow cytometry.
(§3) First, pro-inflammatory cytokine production in macrophages was investigated. […] In the DC study described herein, DCs were typically conditioned with indole during their development from bone marrow precursors in order to mimic the proximity of DC progenitor cells to indole in the intestinal microenvironment during development. […] BMDMs were treated for 18 hours with indole, followed by a 4 hour stimulation with either a very high (2 ug/ml) or low (250 ng/ml) dose of LPS.
(§4) Additionally, to determine if recently arrived macrophage precursors might also be affected, BMDMs were next treated for just 4 hours with indole, followed by a […] stimulation with the same LPS concentrations.
(§5) To address the question of indole and AhR dependence in macrophages, experiments using BMDMs derived from AhR-knockout mice were run alongside wild-type littermate controls. Specifically, flow cytometric analysis of BMDMs was performed on WT or AhR-KO mice and treated with indole or DMF control for 18 hours. BMDMs were stimulated for 4 hours with LPS (50 ng/ml) in the presence of Golgiplug, then stained for intracellular TNF (left panels) and IL-12 (right panels).
as §1
(§6) Bone marrow was harvested as described above and cultured at a density of 1×10^6 cells in 10 ml complete media supplemented with 10 ng/ml M-CSF (Peprotech) in 100 mm×15 mm petri dishes. Media with cytokine was replenished on day 3. Adherent and semi-adherent cells were recovered on day 7, plated, and treated with indole prior to downstream experiments.
On the technique in general: A flow cytometer gives signals particle by particle.

Test [3] deals with Erk. The experiment in a line: phospho-Erk signaling in BMDMs. As to conditions: 1 mM TDMM 24 hours, LPS 1 ug/ml 15 minutes. The protocol:
(§7) The PI3K/Akt and MAPK/Erk signaling pathways regulate many cellular processes including survival, apoptosis, growth, and cytokine production. […] Specifically, BMDMs were treated with indole (1 mM) or DMF control for 18 hours, then stimulated with LPS (10 ug/ml) or CpG (5 uM) for 30 minutes. Cells were stained for phospho-Akt or phospho-Erk and analyzed by flow cytometry.
as §1

The subject of test [4] is Erk. The experiment in a line: pERK signaling in BMDCs. The settings on record: 1 mM TDMM 24 hours, CpG (5 uM) 15 minutes. As for the experimental part:
as §1

Test [5] concerns IL-12. The experiment in a line: IL-12 production in BMDCs, intracellular staining, flow cytometry. The settings on record: BMDCs, 1 mM TDMM 24 hours, LPS (1 ug/ml) 4 hours. As for the experimental part: (§8) Intracellular staining was performed to assess TNF (FIG. 3A) and IL-12 (FIG. 3B) production.
(§9) Briefly, bone marrow was harvested from femurs of mice and cultured for 7 days in the presence of DC-skewing cytokines, GM-CSF and IL-4. […] The pro-inflammatory cytokines, IL-6 and IL-12, were specifically queried. […] Immune cells communicate largely through the production of soluble factors including cytokines, and DCs detect these signals and determine their effector functions accordingly.
as §1

Test [6] concerns TNF. The experiment in a line: TNF production in BMDCs, intracellular staining, flow cytometry. The settings on record: 1 mM TDMM 24 hours, LPS (1 ug/ml) 4 hours. As for the experimental part: Intracellular staining was performed to assess TNF production.
as §8, §9, §1

For test [7], the system named is Akt. The experiment in a line: phospho-Akt signaling in BMDMs. As to conditions: 1 mM TDMM 24 hours, LPS 1 ug/ml 15 minutes. As for the experimental part:
as §7, §1

Another test concerns Stat3. The experiment in a line: IL-6 induced pSTAT3 signaling in splenic DCs. As to conditions: for IL-6 induced pSTAT3 signaling in splenic DCs: TDMM 24 hours, 10 ng/ml IL-6 30 minutes; for IL-6 induced pSTAT3 expression, CD4+ DCs / IL-6 induced pSTAT3 expression, CD4− DCs: splenic DCs, 1 mM TDMM 24 hours, IL-6 (10 ng/ml) 30 minutes. The protocol:
Briefly, flow cytometric analysis was performed on splenic DCs conditioned with the indicated TDMMs for 24 hours and then subsequently stimulated with 10 ng/ml IL-6 for 30 minutes.

Test [8] deals with TNF. The experiment in a line: TNF production in BMDMs, intracellular staining, flow cytometry. The settings on record: BMDMs, 1 mM TDMM 24 hours, LPS 1 ug/ml 4 hours. The protocol: as §2, §3, §4, §5, §1, §6

The structures appear in SMILES notation.

For `O=C(O)Cc1c[nH]c2ccccc12` [I3AT, indole-3-acetate], the pAKT result with Akt [1] was “reduced and ↓”; in the test on Akt [7], “No effect”. Also, the IL-12 entry was “reduction and ↓” in the test on IL-12 [2]; “reduction and ↓” in the test with IL-12 [5]. Besides, the pERK entry in the test on Erk [3] is “No effect”; in the test with Erk [4], “reduced and ↓”. The TNF entry was “reduction and ↓” in the test on TNF [6]; “No effect” in the test on TNF [8]. Further, in the test with Stat3, the “IL-6 induced pSTAT3 signaling in splenic DCs” value (“IL-6 induced pSTAT3 signaling” below) is recorded as “inhibits”. Moreover, the “IL-6 induced pSTAT3 expression, CD4+ DCs” value in the test on Stat3 is “↓”. In addition, the “IL-6 induced pSTAT3 expression, CD4− DCs” value with Stat3 is “↓”.
For `O=C(O)C(=O)Cc1c[nH]c2ccccc12` [I3P, indole-3-pyruvate], the pAKT entry in the test on Akt [1] was “reduced and ↓”. For the same compound, the pERK entry in the test with Erk [3] is “No effect”. Also, in the test with Erk [4], the pERK entry is “reduced and ↓”. Further, the IL-12 result in the test on IL-12 [5] was “reduction and ↓”. Further, the TNF entry with TNF [6] was “reduction and ↓”. Also, the pAKT entry with Akt [7] was “No effect”. In the test with Stat3, the “IL-6 induced pSTAT3 signaling” value is given as “inhibits”; the “IL-6 induced pSTAT3 expression, CD4+ DCs” value was “↓”; the “IL-6 induced pSTAT3 expression, CD4− DCs” value is “↓”.
`OCc1c[nH]c2ccccc12` [I3C, indole-3-carbinol, reference compound]: the pAKT entry is reported as “↓↓↓↓” in the test on Akt [1] and “↓↓” in the test on Akt [7]. In addition, the IL-12 entry in the test with IL-12 [2] was “↓↓↓↓”; in the test with IL-12 [5], “↓↓↓”. Besides, the pERK result in the test on Erk [3] and in the test on Erk [4] was “↓↓↓↓” throughout. Further, the TNF result in the test with TNF [6] and in the test on TNF [8] was “↓↓↓↓” each time. In addition, in the test on Stat3, the “IL-6 induced pSTAT3 expression, CD4+ DCs” value is on record as “↓↓↓↓”. The “IL-6 induced pSTAT3 expression, CD4− DCs” value in the test with Stat3 is recorded as “↓↓↓↓”.
`Oc1ccc2[nH]ccc2c1` [5HI, 5-hydroxyindole]: the pAKT result in the test on Akt [1] is “reduced and ↓”; in the test with Akt [7] it was “reduced and ↓”. For the same compound, the pERK entry is “reduced and ↓” in the test on Erk [3]; “reduced and ↓” in the test with Erk [4]. The IL-12 result in the test on IL-12 [5] was “reduction and ↓”. Besides, in the test with TNF [6], the TNF entry was “reduction and ↓↓”. Further, the “IL-6 induced pSTAT3 signaling” value in the test on Stat3 is on record as “inhibits”. Besides, the “IL-6 induced pSTAT3 expression, CD4+ DCs” value in the test on Stat3 is reported as “↓”. In the test on Stat3, the “IL-6 induced pSTAT3 expression, CD4− DCs” value was “↓”.
